Assay results published in patent publication US12532887B2, “Method for controlling pests of potato plants” (BASF SE, priority 2018, dated 2026).
Read-outs that look alike come from different tables or passages of the source.

Experiments:
[1] = test system: Colorado Potato Beetle (CPB, Leptinotarsa decemlineata); test: Colorado Potato Beetle dipping bioassay (foliar method) with potato plants; type: in vivo; conditions: for Activity against CPB by potato plant dipping assay / Feeding damage protection of potato plants, Feeding Protection (%) / Feeding damage protection of potato plants (%), Control corrected: 100 ppm; for Feeding damage protection of potato plants, Feeding Protection (%) / Feeding damage protection of potato plants (%), Control corrected / mortality at 100 ppm: leaf dipping, 2nd instar CPB, 5 days after infest; for mortality at 100 ppm: Leptinotarsa decemlineata, foliar, 120 h
From the text: 2. Method: Colorado Potato Beetle (CPB, Leptinotarsa decemlineata) Dipping Bioassay (Foliar Method) with Potato Plants Serial dilutions of TGAI are made in 50:50 (acetone: H2O) 0.01% kinetic solvent solution. Potato plant true leaves are snipped off the plant, treated by dipping method in a bowl with acetone-resistant plastic liner and inserted into a glass flask filled with water of the stem part to prevent dehydration of the leaves. Leaves are air-dried in hood, and transferred to petri dishes preset with a filter paper soaked with 2.5 ml water. The leaves are infested with five 2nd instar CPB per dish. 6 replicates/treatment and one rate (100 ppm)/test analog. Petri dishes are held for 5 days after infest at a […], 50% RH and 14/10 light/dark cycle in walk-in chamber. Both plant feeding damage and mortality of CPB were evaluated.

[2] = test system: Colorado Potato beetle, Leptinotarsa decimlineata; test: Field trial, foliar application on potato, feeding damage assessment; type: in vivo
From the text: 1. Potato-Colorado Potato Beetle, Leptinotarsa decimlineata:
Foliar application: Field trials were set up. The plots were laid out in 5-meter rows with 4 replications. Applications of Compound I-R-1 was done. Feeding damage assessments were taken at 6, 15 and 20 days after application for the entire plot.

[3] = control corrected, read-out: Mortality of CPB (%), Control corrected
[4] = read-out: Mortality of CPB, Mortality (%)

SMILES | Activity against CPB by potato plant dipping assay [1] | Feeding damage protection of potato plants, Feeding Protection (%) [1] [%] | Feeding damage protection of potato plants (%), Control corrected ([1]; control corrected) [%] | mortality at 100 ppm [1, 3] [%] | mortality at 100 ppm [1, 4] [%] | Efficacy against L. decimlineata as foliar application in terms of reduction in feeding damage ([2]; foliar application (Table 2)) | Feeding damage (%) A06 ([2]; foliar treatment, 60 g ai/ha, 6 days after application, entire plot) [%] | Feeding damage (%) A15 ([2]; foliar treatment, 60 g ai/ha, 15 days after application, entire plot) [%] | Feeding damage (%) A20 ([2]; foliar treatment, 60 g ai/ha, 20 days after application, entire plot) [%]
C[n+]1c([O-])c(-c2ccccc2)c(=O)n2c1SCC2c1cnc(Cl)s1 (racemic) [Compound (I)] | active | 89.17 | 88.60 | 56.7 | 56.7 | – | – | – | –
C[n+]1c([O-])c(-c2ccccc2)c(=O)n2c1SC[C@@H]2c1cnc(Cl)s1 [Compound (I-R-1)] | active | 90.83 | 90.40 | 80 | 80 | good efficacy | 6.5 | 5.0 | 8.0
C[n+]1c([O-])c(-c2ccccc2)c(=O)n2c1CCC2c1cnc(Cl)s1 (stereo not drawn) [Compound C-6, reference compound] | inactive | 11.67 | 7.00 | 0 | 0 | – | – | – | –
C[n+]1c([O-])c(-c2ccccc2)c(=O)n2c1OCC2c1cnc(Cl)s1 (stereo not drawn) [Compound C-19, reference compound] | inactive | 5.00 | 0.00 | 3.33 | 3.33 | – | – | – | –
